Format in all cases: functional, cell-based
Test [1] addresses T1, Toll-like receptor 7 (Homo sapiens) (UniProt Q9NYK1).
T1 sequence (whole entry): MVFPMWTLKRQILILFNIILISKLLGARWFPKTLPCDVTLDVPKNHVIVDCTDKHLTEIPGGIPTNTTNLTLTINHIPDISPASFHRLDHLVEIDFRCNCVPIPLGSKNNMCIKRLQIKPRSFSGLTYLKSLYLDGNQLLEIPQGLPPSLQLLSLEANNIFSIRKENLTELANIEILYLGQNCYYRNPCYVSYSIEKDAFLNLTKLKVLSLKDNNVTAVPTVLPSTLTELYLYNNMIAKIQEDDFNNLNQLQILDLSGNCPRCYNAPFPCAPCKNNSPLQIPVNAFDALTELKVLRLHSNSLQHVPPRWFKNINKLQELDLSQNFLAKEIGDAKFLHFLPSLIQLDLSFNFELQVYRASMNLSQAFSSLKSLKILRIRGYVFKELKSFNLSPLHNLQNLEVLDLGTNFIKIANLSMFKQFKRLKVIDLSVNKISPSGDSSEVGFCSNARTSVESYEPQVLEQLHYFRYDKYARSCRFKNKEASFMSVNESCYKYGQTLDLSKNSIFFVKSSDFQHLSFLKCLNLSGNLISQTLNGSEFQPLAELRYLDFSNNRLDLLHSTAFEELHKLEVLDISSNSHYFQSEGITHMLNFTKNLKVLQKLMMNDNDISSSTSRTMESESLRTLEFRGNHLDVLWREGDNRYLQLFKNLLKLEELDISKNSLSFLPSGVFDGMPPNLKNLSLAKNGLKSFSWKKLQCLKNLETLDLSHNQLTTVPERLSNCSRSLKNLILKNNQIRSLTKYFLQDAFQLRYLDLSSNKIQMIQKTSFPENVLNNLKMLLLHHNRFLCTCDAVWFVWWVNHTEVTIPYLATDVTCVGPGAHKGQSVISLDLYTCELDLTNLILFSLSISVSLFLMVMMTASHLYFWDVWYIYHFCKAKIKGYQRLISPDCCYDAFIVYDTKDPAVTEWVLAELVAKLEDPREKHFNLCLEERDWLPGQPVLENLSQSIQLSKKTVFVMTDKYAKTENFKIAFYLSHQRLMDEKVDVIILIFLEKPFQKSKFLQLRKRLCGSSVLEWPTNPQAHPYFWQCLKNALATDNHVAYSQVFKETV
Description: Agonist activity at human TLR7 transfected in HEK reporter cells assessed as NF-kappaB induction by specific secreted alkaline phosphatase gene assay. The settings on record: HEK293.

Test [2] deals with PBMC. Description: Immunostimulatory activity in human PBMC assessed as Th1-biased immunostimulatory activity measured as IFNalpha release by ELISA.
For test [3], the system named is PBMC. As to the kind of experiment: Immunostimulatory activity in human PBMC assessed as Th1-biased immunostimulatory activity measured as IFN-gamma release by ELISA. (In an ELISA, binding on a coated surface is turned into a signal by an enzyme label.)
Test [4] has as its system PBMC. As to the kind of experiment: Immunostimulatory activity in human PBMC assessed as Th1-biased immunostimulatory activity measured as IL12 release by ELISA.
The test system of test [5] is PBMC. As to the kind of experiment: Immunostimulatory activity in human PBMC assessed as Th1-biased immunostimulatory activity measured as IL18 release by ELISA.

Activity calls are given as the source filed them. The calls are words filed in the database; no cut-off is given here.

As to `CCCCc1nc2c(N)nc3ccccc3c2n1Cc1ccc(CNC(=O)CCN2C(=O)CC(SC[C@@H](NC(=O)CC[C@@H](N)C(=O)O)C(=O)NCC(=O)O)C2=O)cc1` (stereo not given in full), the outcome in test [1] was inactive.
For `CCCCc1nc2c(N)nc3ccccc3c2n1Cc1ccc(CN)cc1`, the outcome in the test on PBMC [2], in the test with PBMC [3], in the test on PBMC [4] and in the test with PBMC [5] was Active.

The record behind these values is ChEMBL document CHEMBL1777740, “Toward self-adjuvanting subunit vaccines: model peptide and protein antigens incorporating covalently bound toll-like receptor-7 agonistic imidazoquinolines” (Bioorg Med Chem Lett, 2011).
